Among the data in PubChem BioAssay (NCI) are TGI and GI50 values, retold here.

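Step 1: Grow cells in 96-well plates. Step 2: Expose to compound for 48 hours at 5 concentrations. Step 3: Interpolate endpoints linearly; if unreached, use highest concentration. Here, GI50 denotes the concentration required for 50% inhibition of growth. TGI: concentration producing complete growth inhibition.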 Where only a bound is given, the exact number is not on record here.

Among the test systems are M14 melanoma; SK-MEL-28 melanoma; OVCAR-8 ovarian; OVCAR-5 ovarian; HL-60(TB) leukemia; RXF 393 renal; SK-MEL-5 melanoma; MALME-3M melanoma; HT29 colon; NCI/ADR-RES ovarian.
Holding throughout (test): DTP human tumour cell line panel, 48 h

In general, TGI refers to the concentration at which net growth stops. A low value points to greater sensitivity of the cells. On to `O=[N+]([O-])c1nccn1CC(O)c1ccccc1` (configuration not stated), for which the TGI with M14 melanoma, with SK-MEL-28 melanoma, in the assay on OVCAR-8 ovarian, with OVCAR-5 ovarian, in the assay with HL-60(TB) leukemia and in the assay with RXF 393 renal was above 100 µM each time. For the same compound, the TGI in the assay with SK-MEL-5 melanoma, in the assay on MALME-3M melanoma and in the assay with HT29 colon was above 100 µM each time.
By GI50 is commonly meant the concentration that inhibits growth by half. On to `CC1SC(c2ccccc2Cl)N(NC(=O)C(O)c2ccccc2)C1=O` (configuration not stated), for which the GI50 with M14 melanoma was 94.3 µM; in the assay with SK-MEL-28 melanoma it was above 100 µM; with OVCAR-8 ovarian, above 100 µM; in the assay on OVCAR-5 ovarian, above 100 µM; in the assay on HL-60(TB) leukemia, 82.4 µM; in the assay with RXF 393 renal it was above 100 µM. Besides, the values for the GI50 in the assay with SK-MEL-5 melanoma, with HT29 colon and with NCI/ADR-RES ovarian were 63.9 µM, above 100 µM and 66 µM, respectively. Further, the total growth inhibition concentration (TGI) with M14 melanoma, with SK-MEL-28 melanoma, in the assay on OVCAR-8 ovarian, in the assay on OVCAR-5 ovarian, in the assay on HL-60(TB) leukemia and in the assay with RXF 393 renal was above 100 µM each time. Further, the TGI with SK-MEL-5 melanoma, with HT29 colon and with NCI/ADR-RES ovarian was above 100 µM each time.
Turning to `CCOC(=O)C12CCCC1(O)N(NC(=O)OC)C(C)=C2C(=O)OC` (configuration not stated), the TGI in the assay on M14 melanoma, in the assay with SK-MEL-28 melanoma, with OVCAR-8 ovarian, in the assay with OVCAR-5 ovarian, with HL-60(TB) leukemia and in the assay on MALME-3M melanoma was above 100 µM throughout. In the assay with HT29 colon, this compound had a TGI above 100 µM.
With `COC(=O)/C=C1/SC(=Nc2cccc(Cl)c2)N(CCc2c[nH]c3ccc(O)cc23)C1=O`, the GI50 is 1.62 µM in the assay on M14 melanoma; 1.69 µM in the assay on SK-MEL-28 melanoma; 2.32 µM in the assay with OVCAR-8 ovarian; 1.92 µM in the assay with OVCAR-5 ovarian; 1.79 µM in the assay on HL-60(TB) leukemia; 1.51 µM with RXF 393 renal. The results for the GI50 with SK-MEL-5 melanoma, with HT29 colon and with NCI/ADR-RES ovarian were 1.99 µM, 1.87 µM and 2.41 µM, respectively. In addition, the TGI in the assay with M14 melanoma worked out at 3.36 µM; in the assay with SK-MEL-28 melanoma, 3.33 µM; in the assay on OVCAR-8 ovarian, 6.72 µM; in the assay on OVCAR-5 ovarian, 4.07 µM; in the assay with HL-60(TB) leukemia, 6.09 µM; in the assay on RXF 393 renal it was 2.97 µM. For the same compound, the figures for the TGI in the assay with SK-MEL-5 melanoma, in the assay with HT29 colon and in the assay with NCI/ADR-RES ovarian were 4.19 µM, 3.57 µM and 6.89 µM, respectively.
On to `CSc1cc([C@@H]2C[C@H]2c2ccc(Cl)cc2)on1`, for which the GI50 in the assay on M14 melanoma is 9.27 µM; in the assay on SK-MEL-28 melanoma, 24.5 µM; with OVCAR-8 ovarian, 12.3 µM; in the assay on OVCAR-5 ovarian, 14.5 µM; in the assay with RXF 393 renal, 2.14 µM; in the assay on HT29 colon, 18.6 µM. Besides, the GI50 with NCI/ADR-RES ovarian was 13.6 µM. In addition, the TGI was above 100 µM in the assay on M14 melanoma; 96.7 µM with SK-MEL-28 melanoma; 46.1 µM in the assay with OVCAR-8 ovarian; 35.2 µM in the assay with OVCAR-5 ovarian; 12.6 µM in the assay on RXF 393 renal; above 100 µM in the assay with HT29 colon. Besides, the TGI with NCI/ADR-RES ovarian came out at 42.4 µM.
Consider `Oc1ccccc1-c1nn(CNc2ccc(Cl)cc2)c(=S)o1`, for which the GI50 with M14 melanoma is 28.3 µM; with OVCAR-8 ovarian, 30.2 µM; in the assay with OVCAR-5 ovarian, above 100 µM; with RXF 393 renal, 19.9 µM; in the assay on SK-MEL-5 melanoma, 2.31 µM; in the assay with HT29 colon, 24.2 µM. For the same compound, the GI50 in the assay on NCI/ADR-RES ovarian was 18.9 µM. For the same compound, the TGI is above 100 µM in the assay with M14 melanoma; 89.9 µM with OVCAR-8 ovarian; above 100 µM with OVCAR-5 ovarian; 48.5 µM in the assay with RXF 393 renal; above 100 µM in the assay on SK-MEL-5 melanoma; 88.1 µM with HT29 colon. Also, the total growth inhibition concentration (TGI) in the assay with NCI/ADR-RES ovarian was found to be 79.7 µM.
As for `Cc1cccc(-c2nnc3s/c(=C\c4ccc(N(C)C)cc4)c(=O)n23)c1`, the TGI with M14 melanoma, with SK-MEL-28 melanoma, with OVCAR-8 ovarian, in the assay on OVCAR-5 ovarian, in the assay on HL-60(TB) leukemia and with RXF 393 renal was above 100 µM each time. The TGI in the assay on SK-MEL-5 melanoma and with MALME-3M melanoma was above 100 µM in each case.
On to `O=C(CC1(O)C(=O)Nc2c(Cl)cc(Cl)cc21)c1ccccc1` (configuration not stated), for which the TGI with M14 melanoma, in the assay with SK-MEL-28 melanoma, in the assay on OVCAR-8 ovarian, with OVCAR-5 ovarian, with HL-60(TB) leukemia and in the assay on RXF 393 renal was above 100 µM throughout. Moreover, the total growth inhibition concentration (TGI) in the assay on SK-MEL-5 melanoma, with MALME-3M melanoma and with HT29 colon was above 100 µM each time.
As for `c1ccc(SC(Sc2ccccc2)=C2CCC2)cc1`, the concentration for total growth inhibition (TGI) in the assay on M14 melanoma, in the assay on SK-MEL-28 melanoma, with OVCAR-8 ovarian, in the assay on HL-60(TB) leukemia, in the assay on RXF 393 renal and with SK-MEL-5 melanoma was above 100 µM throughout.
For the compound `Nc1nc(=O)n(C2CCC(CO)O2)cc1F` (configuration not stated), the TGI in the assay with M14 melanoma, with SK-MEL-28 melanoma, in the assay on OVCAR-8 ovarian, with OVCAR-5 ovarian, in the assay with HL-60(TB) leukemia and with RXF 393 renal was above 100 µM in each case. The TGI in the assay with SK-MEL-5 melanoma, in the assay with MALME-3M melanoma and in the assay on HT29 colon was above 100 µM in each case.
With `CSC(=NC(=O)c1ccccc1Cl)SCCSC(=NC(=O)c1ccccc1Cl)SC`, the TGI with M14 melanoma, in the assay with SK-MEL-28 melanoma, with OVCAR-8 ovarian, with OVCAR-5 ovarian, in the assay with HL-60(TB) leukemia and in the assay on RXF 393 renal was above 100 µM throughout. Moreover, the TGI with SK-MEL-5 melanoma, in the assay on MALME-3M melanoma and in the assay with HT29 colon was above 100 µM in each case.
For `COc1ccc2c(c1)c(-c1nc(-c3cn(C)c4ccncc34)cs1)cn2C`, the GI50 was 1.7 µM in the assay on M14 melanoma; 1.71 µM in the assay on SK-MEL-28 melanoma; 1.81 µM in the assay on OVCAR-5 ovarian; 1.96 µM in the assay with HL-60(TB) leukemia; 1.71 µM with RXF 393 renal; 1.52 µM in the assay on SK-MEL-5 melanoma. Moreover, the GI50 is 2.02 µM in the assay on MALME-3M melanoma and 1.43 µM with HT29 colon. The concentration for total growth inhibition (TGI) in the assay on M14 melanoma was found to be 3.29 µM; in the assay on SK-MEL-28 melanoma it was 3.15 µM; with OVCAR-5 ovarian, 3.53 µM; with HL-60(TB) leukemia, 4.49 µM; in the assay with RXF 393 renal, 3.21 µM; in the assay with SK-MEL-5 melanoma, 2.85 µM. Besides, the concentration for total growth inhibition (TGI) in the assay on MALME-3M melanoma is 3.58 µM; with HT29 colon, 3.1 µM.
